Assay results taken from patent publication US20160168195A1, “OLIGOPEPTIDES AND PROCESS FOR PREPARATION THEREOF” (Council of Scientific & Industrial Research, priority 2011, published 2016).

What was measured:
[1] = tested on: human cervical cancer cell line (HeLa); assay: Determination of IC50 in cancer cell lines (cell counting, trypan blue), HeLa; assay type: cell-based; conditions: 24 h with compound (1-40 nM), inhibition of cell proliferation, read-out: IC50 against He La cells
Experimental: (§1) Then the medium was replaced with fresh medium containing vehicle (0.1% DMSO) or different concentrations of compounds (1-40 nM) and the cells were grown for an additional 24 h. Both attached and floating cells were harvested and counted after staining with trypan blue (Rathinasamy et al, BMC Cancer 2010; 10:213). Percentage inhibition of cell proliferation was plotted against compound concentration using Origin Pro 7.5 software (Table 2).

MDA-MB-231 cells = assay: Determination of IC50 in cancer cell lines (cell counting, trypan blue), MDA-MB-231; assay type: cell-based, human; conditions: MDA-MB-231 (highly metastatic breast cancer)
Experimental: as §1

HeLa cells [2] = assay: Apoptosis by annexin V and propidium iodide staining; assay type: cell-based, human; conditions: HeLa, 7, 15, 30 nM, 24 h
Experimental: (§2) After 40 h of incubation, cells were trypsinized and collected by centrifugation. After washing pellet twice in PBS, the cells were lysed in buffer (50 mM Tris pH 8.0, 10 mM EDTA, 0.5% sarcosine, and 0.5 mg/mL proteinase K), and incubated at 50° C. for 1 h in the heating block. RNase A (1 mg/mL) was added and incubation was further extended for 1 h. The samples were allowed to come to 25° C. Gel electrophoresis was done using 2% agarose and the fragmented genomic DNA visualized after staining with ethidium bromide using UV gel documentation system (FIG. 2) (Rathinasamy et al, FEBS J 2006; 273:4114). HeLa cells were incubated with different concentrations of compound 5 (7, 15 and 30 nM) for 24 h. Cells were stained with annexin V and propidium iodide. The number of cells undergoing apoptosis was estimated by counting the annexin V and propidium iodide positive cells (FIG. 13).

HeLa cells [3] = assay: Apoptosis detection by DNA fragmentation assay; assay type: cell-based, human; conditions: HeLa, 7, 15, 30 nM, 40 h
Experimental: as §2

[4] = tested on: microtubules of HeLa cells; assay: Effect on interphase and mitotic microtubules of HeLa cells (immunostaining); assay type: cell-based, human
Experimental: Effect of Compound 5 on interphase and mitotic microtubules of HeLa cells: HeLa cells were seeded at a density of 0.6×10^5 cells/mL and were grown as monolayer on glass cover slips. Compounds diluted in Dimethyl sulfoxide (DMSO) (0.1% final concentration) were added to the culture medium 24 h after seeding. Then, the medium was replaced with fresh medium containing vehicle (0.1% DMSO) or different concentrations (7, 15, 30 nM) of compound 5 and the incubation continued for further 24 h. The cells were then fixed with 3.7% formaldehyde at 37° C. for 30 min and immunostained using tubulin antibody (FIGS. 4 and 5) (Mohan R and Panda D, Cancer Res. 2008, 68: 6181). The DNA was stained using Hoechst 33258 dye. The images were visualized by TE Eclipse 2000U fluorescence microscope (Nikon, Tokyo, Japan) and analyzed with Image-Pro Plus software.

MCF-7 cells = assay: Determination of IC50 in cancer cell lines (cell counting, trypan blue), MCF-7; assay type: cell-based, human; conditions: MCF-7 (breast cancer)
Experimental: as §1

Goat brain tubulin = assay: Microtubule polymerization assay (light scattering); assay type: biochemical; conditions: tubulin 10 μM, 30 min, compared with compounds 1, 2, 3
Experimental: Microtubule polymerization assay: Goat brain tubulin (10 μM) was incubated without or with different compounds 1, 2, 3 and compound 5 (5 μM) in microtubule assembly buffer (1 M monosodium glutamate, 3 mM MgCl2, 1 mM EGTA and 25 mM PIPES pH 6.8) on ice for 20 minutes. Then, GTP (1 mM) was added to the reaction mixture. The assembly of tubulin was monitored at 37° C. using a spectrofluorometer for 30 min. Similar experiment was done with compound 5 (1, 5, 7 and 10 μM). MAPs-rich tubulin (1 mg/mL) was incubated without or with different concentrations of compound 5 (1, 3, 5 and 10 μM) in PEM buffer (25 mM pipes pH 6.8 containing 3 mM MgCl2 and 1mM EGTA) for 15 min on ice and then, 1 mM GTP was added to the reaction mixture. The effect of D1, D2, D3 and D5 on the assembly kinetics was monitored as described above for purified tubulin (FIG. 3) (Gupta and Panda, Biochemistry 2002; 41:13029) to study depolymerization of microtubules which is a mechanism of anticancer activity.

[5] = tested on: solid tumors and soft tissue sarcomas; conditions: cited from earlier work
[6] = in vivo; cited from earlier work

With `CC[C@H](C)C(/C=C/C(=O)NCC1O[C@@H](C(=O)N[C@@H](Cc2ccccc2)C2=NCCS2)[C@@H](OC)[C@@H]1OC)N(C)C(=O)[C@@H](NC(=O)[C@@H](NC)C(C)C)C(C)C` (stereo partly drawn) [Compound 1, Dov(R^1═H)-Val-(4S,5S)-Dil(X,Y═CH)-SAA(2R)-Doe(R^2=2-(4,5-dihydrothiazolyl), n=1)] as the compound, how does the IC50 [1] read?
Its IC50 is 8.7 nM.

Which IC50 [1] does the source give for `CC[C@H](C)C(/C=C/C(=O)NCC1O[C@@H](C(=O)N[C@@H](Cc2ccccc2)C2=NCCS2)[C@@H](OC)[C@@H]1OC)N(C)C(=O)[C@@H](NC(=O)[C@H](C(C)C)N(C)C)C(C)C` (stereo partly drawn) [Compound 2, Dov(R^1=Me)-Val-(4S,5S)-Dil(X,Y═CH)-SAA(2R)-Doe(R^2=2-(4,5-dihydrothiazolyl), n=1)] here?
Its IC50 is 8.8 nM.

Which IC50 [1] does the source give for `CC[C@H](C)C([C@H](CC(=O)NCC1O[C@H](C(=O)N[C@@H](Cc2ccccc2)c2nccs2)[C@@H](OC)[C@@H]1OC)OC)N(C)C(=O)[C@@H](NC(=O)[C@@H](NC)C(C)C)C(C)C` (stereo partly drawn) [Compound 3, Dov(R^1═H)-Val-(3S,4S,5S)-Dil(X═C(OCH3)H,Y═CH2)-SAA(2S)-Doe(R^2=2-(thiazolyl), n=1)] here?
The IC50 was 9.9 nM.

With `CC[C@H](C)C([C@H](CC(=O)NCC1O[C@H](C(=O)N[C@@H](Cc2ccccc2)c2nccs2)[C@@H](OC)[C@@H]1OC)OC)N(C)C(=O)[C@@H](NC(=O)[C@H](C(C)C)N(C)C)C(C)C` (stereo partly drawn) [Compound 4, Dov(R^1=Me)-Val-(3S,4S,5S)-Dil(X═C(OCH3)H,Y═CH2)-SAA(2S)-Doe(R^2=2-(thiazolyl), n=1)] as the compound, how does the IC50 [1] read?
The IC50 was 16 nM.

For `CC[C@H](C)C([C@@H](CC(=O)NCC1O[C@H](C(=O)NCCc2ccccc2)[C@@H](OC)[C@@H]1OC)OC)N(C)C(=O)[C@@H](NC(=O)[C@@H](NC)C(C)C)C(C)C` (stereo partly drawn) [Compound 5, Dov(R^1═H)-Val-(3R,4S,5S)-Dil(X═C(OCH3)H,Y═CH2)-SAA(2S)-Doe(R^2═H, n=1)], which IC50 [1] is on record?
Its IC50 is 6.8 nM.

And the “inhibition of proliferation of MDA-MB-231 cells (in words)” value (MDA-MB-231 cells)?
Its value is “inhibited proliferation”.

And the IC50 (MDA-MB-231 cells; 24 h, read-out: IC50 values for compound 5, MDA-MB-231 cells)?
Its IC50 is 13 ± 5 nM.

What about the “induction of apoptosis (Annexin V and PI staining, in words)” value (HeLa cells [2]) of the same compound?
Its value is “induced apoptosis”.

And the “genomic DNA fragmentation (in words)” value (HeLa cells [3])?
Its value is “DNA fragmentation”.

And the “genomic DNA fragmentation (in words)” value (HeLa cells [3]; listed as D5)?
The value was “caused genomic DNA fragmentation”.

And the “effect on interphase microtubules of HeLa cells (in words)” value ([4]; 7, 15, 30 nM, 24 h)?
The value was “perturbed microtubule network”.

And the “effect on mitotic microtubules of HeLa cells (in words)” value ([4]; 7, 15, 30 nM, 24 h)?
The value was “perturbed microtubule network”.

And the “depolymerization of interphase and mitotic microtubules (in words)” value ([4]; at 15 to 30 nM)?
The value was “showed depolymerization of interphase and mitotic microtubules”.

And the “inhibition of proliferation of MCF-7 cells (in words)” value (MCF-7 cells)?
Its value is “inhibited proliferation”.

And the IC50 (MCF-7 cells; 24 h, read-out: IC50 values for compound 5, MCF-7 cells)?
Its IC50 is 15 ± 7 nM.

What about the “effect on assembly of purified tubulin, relative potency (in words)” value (Goat brain tubulin) of the same compound?
The value was “maximum potency”.

For `CC[C@H](C)C([C@@H](CC(=O)NCC1O[C@@H](C(=O)NCCc2ccccc2)[C@@H](OC)[C@@H]1OC)OC)N(C)C(=O)[C@@H](NC(=O)[C@@H](NC)C(C)C)C(C)C` (stereo partly drawn) [Compound 6, Dov(R^1═H)-Val-(3R,4S,5S)-Dil(X═C(OCH3)H,Y═CH2)-SAA(2R)-Doe(R^2═H, n=1)], which IC50 [1] is on record?
The IC50 was 15 nM.

With `CC[C@H](C)C([C@H](O)CC(=O)NCC1O[C@@H](C(=O)NCc2ccccc2)[C@@H](OC)[C@@H]1OC)N(C)C(=O)[C@@H](NC(=O)[C@@H](NC)C(C)C)C(C)C` (stereo partly drawn) [Compound 7, Dov(R^1═H)-Val-(3R,4S,5S)-Dil(X═C(OH)H,Y═CH2)-SAA(2R)-Doe(R^2═H, n=0)] as the compound, how does the IC50 [1] read?
Its IC50 is 16 nM.

With `CC[C@H](C)C([C@H](O)CC(=O)NCC1O[C@H](C(=O)NCc2ccccc2)[C@@H](OC)[C@@H]1OC)N(C)C(=O)[C@@H](NC(=O)[C@@H](NC)C(C)C)C(C)C` (stereo partly drawn) [Compound 8, Dov(R^1═H)-Val-(3R,4S,5S)-Dil(X═C(OH)H,Y═CH2)-SAA(2S)-Doe(R^2═H, n=0)] as the compound, how does the IC50 [1] read?
The IC50 was 12 nM.

For Dolastatin-10, which “responses in phase I and II clinical trials (in words)” value ([5]; variety of solid tumors and soft tissue sarcomas, Von Mehren et al 2004) is on record?
The value was “did not demonstrate any responses”.

With Dolastatin-15 as the compound, how does the “side effects (in words)” value [6] read?
The value was “severe side effects such as arterial hypertension and myocardial infarction”.

With TZT-1027 as the compound, how does the “activity in Phase II trials (in words)” value ([5]; Phase II, Patel et al 2006) read?
Its value is “no activity”.
